≈ marks a conversion by molar mass, not a printed value.
Test system: strain WSG1
Test: Susceptibility evaluation, K-B method (zones of inhibition of antibiotics)
Type: cell-based, Weissella confusa
Conditions: antibiotic against strain WSG1, K-B method

Compared with CC1(C)S[C@@H]2[C@H](NC(=O)[C@H](N)c3ccc(O)cc3)C(=O)N2[C@H]1C(=O)O [Amoxicillin, amoxicillin], CC[C@H]1OC(=O)[C@H](C)[C@@H](O[C@H]2C[C@@](C)(OC)[C@@H](O)[C@H](C)O2)[C@H](C)[C@@H](O[C@@H]2O[C@H](C)C[C@H](N(C)C)[C@H]2O)[C@](C)(O)C[C@@H](C)CN(C)[C@H](C)[C@@H](O)[C@]1(C)O [Azithromycin, azithromycin] is higher in “Diameter of zone of inhibition” value: 15.0 mm for the first, 15.5 mm for the second.

Going from CC1=C(C(=O)O)N2C(=O)[C@@H](NC(=O)[C@H](N)c3ccccc3)[C@H]2SC1 [Cefalexin, cefalexin] to Cc1nnc(SCC2=C(C(=O)O)N3C(=O)[C@@H](NC(=O)Cn4cnnn4)[C@H]3SC2)s1 [Cefazolin, cefazolin], the “Diameter of zone of inhibition” value rises from 15.5 mm to 19.5 mm.

First: CC1=C(C(=O)O)N2C(=O)[C@@H](NC(=O)[C@H](N)C3=CCC=CC3)[C@H]2SC1 [Cefradine, cefradine]
Second: CC(=O)OCC1=C(C(=O)O)N2C(=O)[C@@H](NC(=O)Cc3cccs3)[C@H]2SC1 [Cephalothin, cephalothin]
The “Diameter of zone of inhibition” value of the first is lower: 17.5 mm for the first, 23.5 mm for the second.

Going from O=C(N[C@H](CO)[C@H](O)c1ccc([N+](=O)[O-])cc1)C(Cl)Cl [Chloramphenicol, chloramphenicol] to CCC[C@@H]1C[C@@H](C(=O)N[C@@H]([C@H]2O[C@H](SC)[C@H](O)[C@@H](O)[C@H]2O)[C@H](C)Cl)N(C)C1 [Clindamycin, clindamycin], the “Diameter of zone of inhibition” value falls from 23.5 mm to 23.0 mm.

Compared with CCN1CCN(c2cc3c(cc2F)c(=O)c(C(=O)O)cn3C2CC2)CC1 [Enrofloxacin, enrofloxacin], Cc1onc(-c2ccccc2)c1C(=O)N[C@@H]1C(=O)N2[C@@H]1SC(C)(C)[C@@H]2C(=O)O [Oxacillin, oxacillin] is lower in “Diameter of zone of inhibition” value: 13.5 mm for the first, 7.5 mm for the second.

First: CN(C)[C@@H]1C(O)=C(C(N)=O)C(=O)[C@@]2(O)C(O)=C3C(=O)c4c(O)cccc4[C@@](C)(O)[C@H]3C[C@@H]12 [Tetracycline, tetracycline]
Second: CN[C@H](CC(C)C)C(=O)N[C@H]1C(=O)N[C@@H](CC(N)=O)C(=O)N[C@H]2C(=O)N[C@H]3C(=O)N[C@H](C(=O)N[C@H](C(=O)O)c4cc(O)cc(O)c4-c4cc3ccc4O)[C@H](O)c3ccc(c(Cl)c3)Oc3cc2cc(c3O[C@@H]2O[C@H](CO)[C@@H](O)[C@H](O)[C@H]2O[C@H]2C[C@](C)(N)[C@H](O)[C@H](C)O2)Oc2ccc(cc2Cl)[C@H]1O [Vancomycin, vancomycin]
The “Diameter of zone of inhibition” value of the first is higher: 19.5 mm for the first, 0.0 mm for the second.

With penicillin the “Diameter of zone of inhibition” value was 23.5 mm.

Test system: strain WSG1
Test: Susceptibility evaluation, MIC method
Type: cell-based
Conditions: Weissella confusa; marbofloxacin against strain WSG1

CN1CCN(c2c(F)cc3c(=O)c(C(=O)O)cn4c3c2OCN4C)CC1 [marbofloxacin] showed an MIC of 1020 µg/mL (≈ 2830 µM).
